Laboratory results taken from patent US11965199B2, “21-hydroxylation of steroids” (EUROAPI, priority 2014, dated 2024).
Like-named read-outs stand apart in the source and are kept apart here.

Assays:
bovine CYP21 [1] = target: T1, bovine CYP21 (Bos taurus, UniProt P00191); test: Whole cell biotransformation (21-hydroxylation) in E. coli C43(DE3); type: cell-based
T1 construct: lacking the hydrophobic anchor region, i.e. a truncation of 29 N-terminal amino acid residues; 6xHis (C); expressed in transfected cells
T1 sequence (P00191 with tags, fused parts or gaps): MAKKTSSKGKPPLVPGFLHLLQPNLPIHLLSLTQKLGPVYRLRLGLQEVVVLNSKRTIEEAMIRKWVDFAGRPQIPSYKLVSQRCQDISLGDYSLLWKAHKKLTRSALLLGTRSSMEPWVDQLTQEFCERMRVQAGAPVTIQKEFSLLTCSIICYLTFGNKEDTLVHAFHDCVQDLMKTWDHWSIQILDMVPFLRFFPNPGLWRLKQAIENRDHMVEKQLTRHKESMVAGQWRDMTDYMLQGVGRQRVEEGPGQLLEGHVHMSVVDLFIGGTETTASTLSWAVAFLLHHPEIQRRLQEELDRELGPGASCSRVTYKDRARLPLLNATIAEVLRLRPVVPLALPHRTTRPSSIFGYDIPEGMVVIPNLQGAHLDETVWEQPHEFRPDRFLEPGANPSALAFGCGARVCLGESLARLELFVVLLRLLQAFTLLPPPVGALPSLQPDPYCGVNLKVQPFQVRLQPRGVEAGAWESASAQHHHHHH

human CYP21 [2] = target: T2, human CYP21 (Homo sapiens, UniProt P08686); test: as above; type: cell-based; set-up: lacking the hydrophobic anchor region, i.e. a truncation of 29 N-terminal amino acid residues; 6xHis (C); expressed in transfected cells; host or cells: E. coli C43(DE3) transformed with pET17b-based bi-/tricistronic vectors (p21h_...) and pGro12
T2 sequence (P08686 with tags, fused parts or gaps): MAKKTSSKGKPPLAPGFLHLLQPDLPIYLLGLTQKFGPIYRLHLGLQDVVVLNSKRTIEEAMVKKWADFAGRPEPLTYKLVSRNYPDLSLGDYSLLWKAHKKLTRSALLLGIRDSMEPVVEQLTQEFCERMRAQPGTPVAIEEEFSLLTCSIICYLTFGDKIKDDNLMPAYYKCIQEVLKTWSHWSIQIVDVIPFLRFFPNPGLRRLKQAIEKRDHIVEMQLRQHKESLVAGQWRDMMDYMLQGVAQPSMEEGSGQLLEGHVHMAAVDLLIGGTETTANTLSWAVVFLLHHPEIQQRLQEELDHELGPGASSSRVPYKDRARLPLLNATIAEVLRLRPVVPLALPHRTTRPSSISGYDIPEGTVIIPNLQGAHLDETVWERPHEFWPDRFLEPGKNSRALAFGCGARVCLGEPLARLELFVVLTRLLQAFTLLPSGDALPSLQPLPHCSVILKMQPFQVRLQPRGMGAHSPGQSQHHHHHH

bovine CYP21 [3] = target: T1, bovine CYP21; test: In vitro substrate conversion with purified enzymes (reconstituted cytochrome P450 system); type: biochemical; settings: defined buffer, NADPH regeneration system, electron transfer proteins of Table 2
Method: (§1) Both enzymes were expressed in the E. coli strain C43(DE3) by coexpression of the E. coli chaperones GroEL/GroES encoded in the vector pGro12. These chaperones ensure a correct protein folding which is important for an incorporation of the heme prosthetic group. In FIG. 3 an SDS-PAGE and a CO difference spectrum of purified bovine CYP21 are shown. […] To determine the binding of medrane to both isozymes the binding constants (KD-values) were determined.
(§2) For an efficient substrate conversion, both isoforms require an electron transfer system which consists of two parts, the cytochrome P450 enzyme itself and one or two electron transfer proteins which are essential for a hydroxylation reaction. Without these transfer proteins, no reaction will take place.
(§3) For in vitro studies and a verification of a substrate conversion, all redox partners were purified.

human CYP21 [4] = target: T2, human CYP21; test: as above; type: biochemical; set-up: lacking the hydrophobic anchor region, i.e. a truncation of 29 N-terminal amino acid residues; 6xHis (C); made in house; host or cells: E. coli C43(DE3), co-expressing GroEL/GroES from pGro12; settings: defined buffer, NADPH regeneration system, electron transfer proteins of Table 2
Method: as §1, §2, §3

[5] = bovine CYP21 with redox partners, GroEL/GroES co-expressed
[6] = human CYP21 with redox partners, GroEL/GroES co-expressed

hydroxylation at position 21 (steroid conversion) (bovine CYP21 [1]; [5]) | hydroxylation at position 21 (steroid conversion) (human CYP21 [2]; [6]) | Compound | hydroxylation at position 21 (steroid conversion) (bovine CYP21 [1]) | hydroxylation at position 21 (steroid conversion) (human CYP21 [2]) | in vitro conversion of medrane to premedrol (bovine CYP21 [3]) | in vitro conversion of medrane to premedrol (human CYP21 [4])
 |  | CC(=O)[C@H]1CC[C@H]2[C@@H]3CC[C@H]4CC(=O)CC[C@]4(C)[C@H]3CC[C@]12C [5α-dihydroprogesterone] | able to hydroxylate | able to hydroxylate |  | 
able to hydroxylate | able to hydroxylate | CC(=O)[C@@]1(O)CC[C@H]2[C@@H]3C[C@H](C)C4=CC(=O)C=C[C@]4(C)[C@H]3[C@@H](O)C[C@@]21C [Deltamedrane, deltamedrane] |  |  |  | 
able to hydroxylate | able to hydroxylate | CC(=O)[C@H]1CC[C@H]2[C@@H]3CCC4=CC(=O)CC[C@]4(C)[C@H]3CC[C@]12C [Progesterone, progesterone] |  |  |  | 
 |  | medroxyprogesterone | able to hydroxylate | able to hydroxylate |  | 

Compound | hydroxylation at position 21 (steroid conversion) (bovine CYP21 [1]; [5]) | hydroxylation at position 21 (steroid conversion) (human CYP21 [2]; [6]) | hydroxylation at position 21 (steroid conversion) (bovine CYP21 [1]) | hydroxylation at position 21 (steroid conversion) (human CYP21 [2]) | in vitro conversion of medrane to premedrol (bovine CYP21 [3]) | in vitro conversion of medrane to premedrol (human CYP21 [4])
CC(=O)[C@@]1(O)CCC2C3C[C@H](C)C4=CC(=O)CC[C@]4(C)C3[C@@H](O)C[C@@]21C (stereo partly drawn) [Medrane, medrane] | able to hydroxylate | able to hydroxylate |  |  | very efficiently | very efficiently
